Experimental data taken from PubChem BioAssay AID2060508 (Molecular Pharmacology Branch, DTP, NCI, 2025).

System: 454973-116-R2-J3-PDC spheroids, viability, % test/control
Assay: Anticancer human tumor 454973-116-R2-J3-PDC patient-derived pancreatic carcinoma cell line growth inhibition [GQUAD]
Settings: spheroids with HUVEC and MSC; for IC50: curve of first compound; for viability, T/C: stronger effect = lower value
Method in brief: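 Tumor cells were grown as complex spheroids with HUVEC endothelial cells and mesenchymal stem cells as stroma. G-quadruplex stabilizers were combined with targeted agents over half-log dilutions from near the clinical Cmax, or from 10 microM.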

[1] = second compound 0.0316 µM, first compound 0.0316 µM
[2] = second compound 0.0316 µM, first compound 0.1 µM
[3] = second compound 0.0316 µM, first compound 0.316 µM
[4] = second compound 0.0316 µM, first compound 1 µM
[5] = second compound 0.0316 µM, first compound 3.16 µM
[6] = second compound 0.0316 µM, first compound 10 µM
[7] = second compound 0.1 µM, first compound 0.0316 µM
[8] = second compound 0.1 µM, first compound 0.1 µM
[9] = second compound 0.1 µM, first compound 0.316 µM
[10] = second compound 0.1 µM, first compound 1 µM
[11] = second compound 0.1 µM, first compound 3.16 µM
[12] = second compound 0.1 µM, first compound 10 µM
[13] = second compound 0.316 µM, first compound 0.0316 µM
[14] = second compound 0.316 µM, first compound 0.1 µM
[15] = second compound 0.316 µM, first compound 0.316 µM
[16] = second compound 0.316 µM, first compound 1 µM
[17] = second compound 0.316 µM, first compound 3.16 µM
[18] = second compound 0.316 µM, first compound 10 µM
[19] = second compound 1 µM, first compound 0.0316 µM
[20] = second compound 1 µM, first compound 0.1 µM
[21] = second compound 1 µM, first compound 0.316 µM
[22] = second compound 1 µM, first compound 1 µM
[23] = second compound 1 µM, first compound 3.16 µM
[24] = second compound 1 µM, first compound 10 µM
[25] = second compound 3.16 µM, first compound 0.0316 µM
[26] = second compound 3.16 µM, first compound 0.1 µM
[27] = second compound 3.16 µM, first compound 0.316 µM
[28] = second compound 3.16 µM, first compound 1 µM
[29] = second compound 3.16 µM, first compound 3.16 µM
[30] = second compound 3.16 µM, first compound 10 µM
[31] = second compound 10 µM, first compound 0.0316 µM
[32] = second compound 10 µM, first compound 0.1 µM
[33] = second compound 10 µM, first compound 0.316 µM
[34] = second compound 10 µM, first compound 1 µM
[35] = second compound 10 µM, first compound 3.16 µM
[36] = second compound 10 µM, first compound 10 µM
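Further: spheroids exposed to compounds for seven days.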
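Wherever viability, T/C is given: 100% = DMSO vehicle control viability.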

**Q.** What does the source list for `COc1cccc2c1C(=O)c1c(O)c3c(c(O)c1C2=O)CC(O)(C(=O)CO)CC3OC1CC(N)C(O)C(C)O1` (stereo unspecified) + Cc1[nH]c2ccc(F)cc2c1-c1nc2c3cccnc3c3ncccc3c2[nH]1?
**A.** IC50 (second compound 0.0316 µM): 166 nM; IC50 (second compound 0.1 µM): 188 nM; IC50 (second compound 0.316 µM): 154 nM; IC50 (second compound 1 µM): 143 nM; IC50 (second compound 3.16 µM): 145 nM; IC50 (second compound 10 µM): 158 nM; viability, T/C [1]: 106%; viability, T/C [2]: 63.1%; viability, T/C [3]: 30.4%; viability, T/C [4]: 22.6%; viability, T/C [5]: 11.4%; viability, T/C [6]: 0.63%; viability, T/C [7]: 97.8%; viability, T/C [8]: 69.8%; viability, T/C [9]: 27.2%; viability, T/C [10]: 28.9%; viability, T/C [11]: 11%; viability, T/C [12]: 0.58%; viability, T/C [13]: 96.5%; viability, T/C [14]: 59.7%; viability, T/C [15]: 27.6%; viability, T/C [16]: 28.2%; viability, T/C [17]: 11.8%; viability, T/C [18]: 0.44%; viability, T/C [19]: 90.6%; viability, T/C [20]: 61.4%; viability, T/C [21]: 24.3%; viability, T/C [22]: 26.2%; viability, T/C [23]: 11.1%; viability, T/C [24]: 0.62%; viability, T/C [25]: 93.1%; viability, T/C [26]: 59.6%; viability, T/C [27]: 27.6%; viability, T/C [28]: 24.4%; viability, T/C [29]: 14.8%; viability, T/C [30]: 0.52%; viability, T/C [31]: 81.9%; viability, T/C [32]: 64.7%; viability, T/C [33]: 27%; viability, T/C [34]: 27.1%; viability, T/C [35]: 11.5%; viability, T/C [36]: 0.75%

**Q.** For `Cc1[nH]c2ccccc2c1CCNCc1ccc(/C=C/C(=O)NO)cc1` + Cc1[nH]c2ccc(F)cc2c1-c1nc2c3cccnc3c3ncccc3c2[nH]1, which IC50 (second compound 0.0316 µM) is on record?
**A.** 74.3 nM

**Q.** What about the IC50 (second compound 0.1 µM) of the same compound?
**A.** 75.8 nM

**Q.** What about the IC50 (second compound 0.316 µM) of the same compound?
**A.** 77.5 nM

**Q.** And the IC50 (second compound 1 µM)?
**A.** 68.4 nM

**Q.** And the IC50 (second compound 3.16 µM)?
**A.** 72.8 nM

**Q.** And the IC50 (second compound 10 µM)?
**A.** 81.7 nM

**Q.** And the viability, T/C (second compound 0.0316 µM, first compound 0.000999 µM)?
**A.** 107%

**Q.** What about the viability, T/C (second compound 0.0316 µM, first compound 0.00316 µM) of the same compound?
**A.** 104%

**Q.** What about the viability, T/C (second compound 0.0316 µM, first compound 0.00999 µM) of the same compound?
**A.** 104%

**Q.** What about the viability, T/C [1] of the same compound?
**A.** 85.7%

**Q.** What about the viability, T/C (second compound 0.0316 µM, first compound 0.0999 µM) of the same compound?
**A.** 37.6%

**Q.** What about the viability, T/C [3] of the same compound?
**A.** 6.79%

**Q.** What about the viability, T/C (second compound 0.1 µM, first compound 0.000999 µM) of the same compound?
**A.** 104%

**Q.** What about the viability, T/C (second compound 0.1 µM, first compound 0.00316 µM) of the same compound?
**A.** 109%

**Q.** What about the viability, T/C (second compound 0.1 µM, first compound 0.00999 µM) of the same compound?
**A.** 108%

**Q.** What about the viability, T/C [7] of the same compound?
**A.** 94.5%

**Q.** What about the viability, T/C (second compound 0.1 µM, first compound 0.0999 µM) of the same compound?
**A.** 36%

**Q.** And the viability, T/C [9]?
**A.** 7.21%

**Q.** What about the viability, T/C (second compound 0.316 µM, first compound 0.000999 µM) of the same compound?
**A.** 110%

**Q.** And the viability, T/C (second compound 0.316 µM, first compound 0.00316 µM)?
**A.** 110%

**Q.** What about the viability, T/C (second compound 0.316 µM, first compound 0.00999 µM) of the same compound?
**A.** 90.4%

**Q.** And the viability, T/C [13]?
**A.** 88.8%

**Q.** And the viability, T/C (second compound 0.316 µM, first compound 0.0999 µM)?
**A.** 38.3%

**Q.** What about the viability, T/C [15] of the same compound?
**A.** 6.45%

**Q.** What about the viability, T/C (second compound 1 µM, first compound 0.000999 µM) of the same compound?
**A.** 106%

**Q.** And the viability, T/C (second compound 1 µM, first compound 0.00316 µM)?
**A.** 97.5%

**Q.** And the viability, T/C (second compound 1 µM, first compound 0.00999 µM)?
**A.** 99.1%

**Q.** And the viability, T/C [19]?
**A.** 79.8%

**Q.** What about the viability, T/C (second compound 1 µM, first compound 0.0999 µM) of the same compound?
**A.** 35.3%

**Q.** What about the viability, T/C [21] of the same compound?
**A.** 9.42%

**Q.** And the viability, T/C (second compound 3.16 µM, first compound 0.000999 µM)?
**A.** 99.7%

**Q.** And the viability, T/C (second compound 3.16 µM, first compound 0.00316 µM)?
**A.** 94.3%

**Q.** And the viability, T/C (second compound 3.16 µM, first compound 0.00999 µM)?
**A.** 85.3%

**Q.** And the viability, T/C [25]?
**A.** 86.6%

**Q.** And the viability, T/C (second compound 3.16 µM, first compound 0.0999 µM)?
**A.** 36.2%

**Q.** What about the viability, T/C [27] of the same compound?
**A.** 9.17%

**Q.** What about the viability, T/C (second compound 10 µM, first compound 0.000999 µM) of the same compound?
**A.** 96.2%

**Q.** And the viability, T/C (second compound 10 µM, first compound 0.00316 µM)?
**A.** 87.9%

**Q.** And the viability, T/C (second compound 10 µM, first compound 0.00999 µM)?
**A.** 92.3%

**Q.** And the viability, T/C [31]?
**A.** 75.5%

**Q.** And the viability, T/C (second compound 10 µM, first compound 0.0999 µM)?
**A.** 44.6%

**Q.** What about the viability, T/C [33] of the same compound?
**A.** 11%

**Q.** `Nc1ccn(C2OC(CO)C(O)C2(F)F)c(=O)n1` (stereo unspecified) + Cc1[nH]c2ccc(F)cc2c1-c1nc2c3cccnc3c3ncccc3c2[nH]1 was tested. Which IC50 (second compound 0.0316 µM) did it give?
**A.** < 31.6 nM

**Q.** What about the IC50 (second compound 0.1 µM) of the same compound?
**A.** < 31.6 nM

**Q.** And the IC50 (second compound 0.316 µM)?
**A.** < 31.6 nM

**Q.** What about the IC50 (second compound 1 µM) of the same compound?
**A.** < 31.6 nM

**Q.** And the IC50 (second compound 3.16 µM)?
**A.** < 31.6 nM

**Q.** And the IC50 (second compound 10 µM)?
**A.** < 31.6 nM

**Q.** And the viability, T/C [1]?
**A.** 20.1%

**Q.** What about the viability, T/C [2] of the same compound?
**A.** 13.8%

**Q.** What about the viability, T/C [3] of the same compound?
**A.** 17.1%

**Q.** What about the viability, T/C [4] of the same compound?
**A.** 17.2%

**Q.** And the viability, T/C [5]?
**A.** 17.2%

**Q.** And the viability, T/C [6]?
**A.** 15.5%

**Q.** What about the viability, T/C [7] of the same compound?
**A.** 19.7%

**Q.** What about the viability, T/C [8] of the same compound?
**A.** 13.9%

**Q.** What about the viability, T/C [9] of the same compound?
**A.** 15.5%

**Q.** And the viability, T/C [10]?
**A.** 13.7%

**Q.** What about the viability, T/C [11] of the same compound?
**A.** 17.3%

**Q.** What about the viability, T/C [12] of the same compound?
**A.** 14.8%

**Q.** And the viability, T/C [13]?
**A.** 15.3%

**Q.** What about the viability, T/C [14] of the same compound?
**A.** 15.8%

**Q.** What about the viability, T/C [15] of the same compound?
**A.** 17.7%

**Q.** And the viability, T/C [16]?
**A.** 14.5%

**Q.** And the viability, T/C [17]?
**A.** 16.9%

**Q.** And the viability, T/C [18]?
**A.** 15.8%

**Q.** And the viability, T/C [19]?
**A.** 19%

**Q.** And the viability, T/C [20]?
**A.** 19.2%

**Q.** And the viability, T/C [21]?
**A.** 16%

**Q.** What about the viability, T/C [22] of the same compound?
**A.** 20.1%

**Q.** And the viability, T/C [23]?
**A.** 14.2%

**Q.** And the viability, T/C [24]?
**A.** 17.2%

**Q.** What about the viability, T/C [25] of the same compound?
**A.** 16.1%

**Q.** What about the viability, T/C [26] of the same compound?
**A.** 15.6%

**Q.** What about the viability, T/C [27] of the same compound?
**A.** 17.8%

**Q.** What about the viability, T/C [28] of the same compound?
**A.** 17.4%

**Q.** And the viability, T/C [29]?
**A.** 19.1%

**Q.** What about the viability, T/C [30] of the same compound?
**A.** 16.4%

**Q.** And the viability, T/C [31]?
**A.** 17.5%

**Q.** What about the viability, T/C [32] of the same compound?
**A.** 17.6%

**Q.** What about the viability, T/C [33] of the same compound?
**A.** 17%

**Q.** And the viability, T/C [34]?
**A.** 17%

**Q.** What about the viability, T/C [35] of the same compound?
**A.** 13.8%

**Q.** And the viability, T/C [36]?
**A.** 16.6%
